Where two headings read alike, the source gives them in different places.
Legend:
[1] = biological target: T1, EGFR L858R/T790M/C797S (BaF3-LTC cells) (Homo sapiens, UniProt P00533, C797S/L858R/T790M); test: EGFR degradation HTRF assay, BaF3-LTC cells; type: cell-based
T1 construct: expressed in transfected cells; host or cells: BaF3
In short: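 EGFR remaining after a 16 h, 37 °C exposure (8 doses, 5-fold steps from 10 uM final, 0.2% DMSO) was quantified by HTRF antibodies in cell lysate. Percent inhibition relative to DMSO control was fitted by four-parameter logistic to give DC50; Dmax denotes maximal degradation.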

[2] = system: EGFR Del19/T790M/C797S (H1975-clone #28); test: EGFR degradation HTRF assay, H1975-clone #28 DTC cells; type: cell-based
In short: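 The test uses H1975 clonal lines carrying lentiviral mutant EGFR with endogenous copies removed, treated 16h at 37° C., 5% CO2. EGFR left in the lysate is quantified by HTRF, and DC50 is derived from an 8-dose curve starting at 10 uM final.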

[3] = BaF3-LTC cells; EGFR degradation, IC50 (DC50) from curve fit; read-out: DC50(nM) BaF3-LTC
[4] = BaF3-LTC cells; maximum percentage of inhibition (degradation); read-out: Dmax (%) BaF3-LTC
[5] = H1975 # 28 DTC cells; EGFR degradation, IC50 (DC50) from curve fit; read-out: DC50(nM) H1975 # 28 DTC
[6] = H1975 # 28 DTC cells; maximum percentage of inhibition (degradation)

T1 sequence (P00533 25-1210 T790M/C797S/L858R): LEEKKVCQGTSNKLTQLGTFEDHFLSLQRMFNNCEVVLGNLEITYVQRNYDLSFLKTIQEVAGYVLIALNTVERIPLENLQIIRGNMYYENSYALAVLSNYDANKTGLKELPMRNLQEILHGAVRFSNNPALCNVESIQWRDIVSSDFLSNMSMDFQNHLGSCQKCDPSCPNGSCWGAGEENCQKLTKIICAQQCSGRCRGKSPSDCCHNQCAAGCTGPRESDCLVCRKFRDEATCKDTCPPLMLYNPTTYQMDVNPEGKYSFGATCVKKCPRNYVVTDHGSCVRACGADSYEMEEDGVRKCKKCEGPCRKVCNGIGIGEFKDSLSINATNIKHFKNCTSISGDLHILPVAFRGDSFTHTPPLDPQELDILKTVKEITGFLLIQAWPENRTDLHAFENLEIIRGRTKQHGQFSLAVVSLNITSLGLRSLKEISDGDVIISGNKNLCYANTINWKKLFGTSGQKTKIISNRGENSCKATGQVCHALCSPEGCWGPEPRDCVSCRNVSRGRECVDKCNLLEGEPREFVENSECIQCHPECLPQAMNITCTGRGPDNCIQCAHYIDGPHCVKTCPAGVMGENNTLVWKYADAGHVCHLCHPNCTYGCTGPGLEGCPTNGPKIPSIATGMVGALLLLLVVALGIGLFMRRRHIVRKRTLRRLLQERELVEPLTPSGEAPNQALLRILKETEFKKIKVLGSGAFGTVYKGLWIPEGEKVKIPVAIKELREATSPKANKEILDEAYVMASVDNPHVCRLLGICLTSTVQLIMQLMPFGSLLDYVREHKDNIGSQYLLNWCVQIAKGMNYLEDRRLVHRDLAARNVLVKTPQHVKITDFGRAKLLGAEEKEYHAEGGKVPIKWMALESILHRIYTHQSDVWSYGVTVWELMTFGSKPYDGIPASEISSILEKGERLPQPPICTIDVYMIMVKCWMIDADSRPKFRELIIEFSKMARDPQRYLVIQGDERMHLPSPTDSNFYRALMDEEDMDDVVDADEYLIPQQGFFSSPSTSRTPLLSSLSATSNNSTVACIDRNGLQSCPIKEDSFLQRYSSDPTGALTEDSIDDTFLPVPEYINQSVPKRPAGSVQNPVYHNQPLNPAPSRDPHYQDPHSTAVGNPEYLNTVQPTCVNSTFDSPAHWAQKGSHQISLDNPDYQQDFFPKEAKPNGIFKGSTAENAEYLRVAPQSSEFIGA

Compound	DC50 [1, 3] [nM]	Dmax [1, 4] [%]	DC50 [2, 5] [nM]	Dmax (%) H1975 # 28 DTC [2, 6] [%]	DC50 ([1]; read-out: DC50(nM) BaF3-LTC; BaF3-LTC cells; EGFR degradation, IC50 (DC50) from curve fit) [nM]	Dmax ([1]; read-out: Dmax (%) BaF3-LTC, BaF3-LTC cells; maximum percentage of inhibition (degradation)) [%]	DC50 ([2]; read-out: DC50(nM) H1975 # 28 DTC; H1975 # 28 DTC cells; EGFR degradation, IC50 (DC50) from curve fit) [nM]
CCOc1cc(N2CCC(N3CCN(CCC4CCN(c5cc(F)c6c(c5)n(CC)c(=O)n6C5CCC(=O)NC5=O)CC4)CC3)CC2)c(CC)cc1Nc1ncc(Br)c(Nc2ccc3c(=O)n(CC)ncc3c2P(C)(C)=O)n1 (stereo not shown) [Example 640, 3-(5-(4-(2-(4-(1-(4-((5-bromo-4-((5-(dimethylphosphoryl)-2-ethyl-1-oxo-1,2-dihydrophthalazin-6-yl)amino)pyrimidin-2-yl)amino)-5-ethoxy-2-ethylphenyl)piperidin-4-yl)piperazin-1-yl)ethyl)piperidin-1-yl)-3-ethyl-7-fluoro-2-oxo-2,3-dihydro-1H-benzo[d]imidazol-1-yl)piperidine-2,6-dione]	17.9	87.2	3.09	85.38			
CCOc1cc(N2CCC(N3CCN(CCc4cccc5c4oc(=O)n5C4CCC(=O)NC4=O)CC3)CC2)c(CC)cc1Nc1ncc(Br)c(Nc2ccc3c(=O)n(CC)ncc3c2P(C)(C)=O)n1 (stereo not shown) [Example 644, 3-(7-(2-(4-(1-(4-((5-bromo-4-((5-(dimethylphosphoryl)-2-ethyl-1-oxo-1,2-dihydrophthalazin-6-yl)amino)pyrimidin-2-yl)amino)-5-ethoxy-2-ethylphenyl)piperidin-4-yl)piperazin-1-yl)ethyl)-2-oxobenzo[d]oxazol-3(2H)-yl)piperidine-2,6-dione]	5.12	92.6	0.829	86.29			
CCOc1cc(N2CCC(N3CCN(CC4CN(c5cccc6c5oc(=O)n6C5CCC(=O)NC5=O)C4)CC3)CC2)c(CC)cc1Nc1ncc(Br)c(Nc2ccc3c(=O)n(CC)ncc3c2P(C)(C)=O)n1 (stereo not shown) [Example 645, 3-(7-(3-((4-(1-(4-((5-bromo-4-((5-(dimethylphosphoryl)-2-ethyl-1-oxo-1,2-dihydrophthalazin-6-yl)amino)pyrimidin-2-yl)amino)-5-ethoxy-2-ethylphenyl)piperidin-4-yl)piperazin-1-yl)methyl)azetidin-1-yl)-2-oxobenzo[d]oxazol-3(2H)-yl)piperidine-2,6-dione]	22.7	95.8	6.2	84.26			
CCc1ncc2c(P(C)(C)=O)c(Nc3nc(Nc4cc(CC)c(N5CCC(N6CCN(C(=O)Cc7ccc8c(c7)oc(=O)n8C7CCC(=O)NC7=O)CC6)CC5)cc4OC)ncc3Br)ccc2n1 (stereo not shown) [Example 646, 3-(6-(2-(4-(1-(4-((5-bromo-4-((5-(dimethylphosphoryl)-2-ethylquinazolin-6-yl)amino)pyrimidin-2-yl)amino)-2-ethyl-5-methoxyphenyl)piperidin-4-yl)piperazin-1-yl)-2-oxoethyl)-2-oxobenzo[d]oxazol-3(2H)-yl)piperidine-2,6-dione]				74.64	6.2	94.5	0.627
CCOc1cc(N2CCC(N3CCN(CCc4c(F)ccc5c4n(C)c(=O)n5C4CCC(=O)NC4=O)CC3)CC2)c(CC)cc1Nc1ncc(Br)c(Nc2ccc3nc(CC)ccc3c2P(C)(C)=O)n1 (stereo not shown) [Example 648, 3-(4-(2-(4-(1-(4-((5-bromo-4-((5-(dimethylphosphoryl)-2-ethylquinolin-6-yl)amino)pyrimidin-2-yl)amino)-5-ethoxy-2-ethylphenyl)piperidin-4-yl)piperazin-1-yl)ethyl)-5-fluoro-3-methyl-2-oxo-2,3-dihydro-1H-benzo[d]imidazol-1-yl)piperidine-2,6-dione]	15.3	95.8	4.01	81.9			

The next lines start with results.

DC50 [1, 3] [nM]	Dmax [1, 4] [%]	DC50 [2, 5] [nM]	Compound	Dmax (%) H1975 # 28 DTC [2, 6] [%]	DC50 ([1]; read-out: DC50(nM) BaF3-LTC; BaF3-LTC cells; EGFR degradation, IC50 (DC50) from curve fit) [nM]	Dmax ([1]; read-out: Dmax (%) BaF3-LTC, BaF3-LTC cells; maximum percentage of inhibition (degradation)) [%]	DC50 ([2]; read-out: DC50(nM) H1975 # 28 DTC; H1975 # 28 DTC cells; EGFR degradation, IC50 (DC50) from curve fit) [nM]
4.47	88	0.985	CCOc1cc(N2CCC(N3CCN(CCc4c(C)ccc5c4oc(=O)n5C4CCC(=O)NC4=O)CC3)CC2)c(CC)cc1Nc1ncc(Br)c(Nc2ccc3nc(CC)ccc3c2P(C)(C)=O)n1 (stereo not shown) [Example 634, 3-(7-(2-(4-(1-(4-((5-bromo-4-((5-(dimethylphosphoryl)-2-ethylquinolin-6-yl)amino)pyrimidin-2-yl)amino)-5-ethoxy-2-ethylphenyl)piperidin-4-yl)piperazin-1-yl)ethyl)-6-methyl-2-oxobenzo[d]oxazol-3(2H)-yl)piperidine-2,6-dione]	81.71			
11	90.7	1.37	CCOc1cc(N2CCC(N3CCN(CCc4c(F)cc5c(oc(=O)n5C5CCC(=O)NC5=O)c4F)CC3)CC2)c(CC)cc1Nc1ncc(Br)c(Nc2ccc3nc(CC)ccc3c2P(C)(C)=O)n1 (stereo not shown) [Example 635, 3-(6-(2-(4-(1-(4-((5-bromo-4-((5-(dimethylphosphoryl)-2-ethylquinolin-6-yl)amino)pyrimidin-2-yl)amino)-5-ethoxy-2-ethylphenyl)piperidin-4-yl)piperazin-1-yl)ethyl)-5,7-difluoro-2-oxobenzo[d]oxazol-3(2H)-yl)piperidine-2,6-dione]	77.57			
11	92.3	1.52	CCOc1cc(N2CCC(N3CCN(CCCc4cc(C)cc5c4oc(=O)n5C4CCC(=O)NC4=O)CC3)CC2)c(CC)cc1Nc1ncc(Br)c(Nc2ccc3nc(CC)ccc3c2P(C)(C)=O)n1 (stereo not shown) [Example 636, 3-(7-(3-(4-(1-(4-((5-bromo-4-((5-(dimethylphosphoryl)-2-ethylquinolin-6-yl)amino)pyrimidin-2-yl)amino)-5-ethoxy-2-ethylphenyl)piperidin-4-yl)piperazin-1-yl)propyl)-5-methyl-2-oxobenzo[d]oxazol-3(2H)-yl)piperidine-2,6-dione]	79.04			
5.39	92.9	0.354	CCOc1cc(N2CCC(N3CCN(C(=O)COc4cccc5c4n(C)c(=O)n5C4CCC(=O)NC4=O)CC3)CC2)c(CC)cc1Nc1ncc(Br)c(Nc2ccc3nc(CC)ccc3c2P(C)(C)=O)n1 (stereo not shown) [Example 637, 3-(4-(2-(4-(1-(4-((5-bromo-4-((5-(dimethylphosphoryl)-2-ethylquinolin-6-yl)amino)pyrimidin-2-yl)amino)-5-ethoxy-2-ethylphenyl)piperidin-4-yl)piperazin-1-yl)-2-oxoethoxy)-3-methyl-2-oxo-2,3-dihydro-1H-benzo[d]imidazol-1-yl)piperidine-2,6-dione]	69.46			
4.06	94.3	0.71	CCOc1cc(N2CCC(N3CCN(C(=O)CN4CCN(c5cc(F)c([C@H]6CCC(=O)NC6=O)c(F)c5)CC4)CC3)CC2)c(CC)cc1Nc1ncc(Br)c(Nc2ccc3c(=O)n(CC)ncc3c2P(C)(C)=O)n1 [Example 639, (R)-3-(4-(4-(2-(4-(1-(4-((5-bromo-4-((5-(dimethylphosphoryl)-2-ethyl-1-oxo-1,2-dihydrophthalazin-6-yl)amino)pyrimidin-2-yl)amino)-5-ethoxy-2-ethylphenyl)piperidin-4-yl)piperazin-1-yl)-2-oxoethyl)piperazin-1-yl)-2,6-difluorophenyl)piperidine-2,6-dione]	86.93			
7.79	96.1	0.666	CCOc1cc(N2CCC(N3CCN(CCc4cccc5c4C(C)(C)C(=O)N5C4CCC(=O)NC4=O)[C@H](CO)C3)CC2)c(CC)cc1Nc1ncc(Br)c(Nc2ccc3c(=O)n(CC)ncc3c2P(C)(C)=O)n1 (stereo partly drawn) [Example 641, 3-(4-(2-((S)-4-(1-(4-((5-bromo-4-((5-(dimethylphosphoryl)-2-ethyl-1-oxo-1,2-dihydrophthalazin-6-yl)amino)pyrimidin-2-yl)amino)-5-ethoxy-2-ethylphenyl)piperidin-4-yl)-2-(hydroxymethyl)piperazin-1-yl)ethyl)-3,3-dimethyl-2-oxoindolin-1-yl)piperidine-2,6-dione]	76.33			
1.42	93.7	0.617	CCc1cc(Nc2ncc(Br)c(Nc3ccc4nc(C)ccc4c3P(C)(C)=O)n2)c(OC2CC2)cc1N1CCC(N2CCN(CCc3cccc4c3n(C)c(=O)n4C3CCC(=O)NC3=O)CC2)CC1 (stereo not shown) [Example 642, 3-(4-(2-(4-(1-(4-((5-bromo-4-((5-(dimethylphosphoryl)-2-methylquinolin-6-yl)amino)pyrimidin-2-yl)amino)-5-cyclopropoxy-2-ethylphenyl)piperidin-4-yl)piperazin-1-yl)ethyl)-3-methyl-2-oxo-2,3-dihydro-1H-benzo[d]imidazol-1-yl)piperidine-2,6-dione]	76.78			
13.2	93.2	2	CCOc1cc(N2CCC(N3CCN(CCc4c(F)ccc5c4C(C)(C)C(=O)N5C4CCC(=O)NC4=O)CC3)CC2)c(CC)cc1Nc1ncc(Br)c(Nc2ccc3nc(CC)ccc3c2P(C)(C)=O)n1 (stereo not shown) [Example 647, 3-(4-(2-(4-(1-(4-((5-bromo-4-((5-(dimethylphosphoryl)-2-ethylquinolin-6-yl)amino)pyrimidin-2-yl)amino)-5-ethoxy-2-ethylphenyl)piperidin-4-yl)piperazin-1-yl)ethyl)-5-fluoro-3,3-dimethyl-2-oxoindolin-1-yl)piperidine-2,6-dione]	66.66			
